Patent US20230146455A1, “TREATMENT OF INFLAMMATORY DISEASES WITH PEPTIDES AND PHARMACEUTICAL COMPOSITIONS” (Yuyu Pharma, Inc., priority 2020, published 2023)
Several values for one entry are separate records, joined by “and”; a condition that tells them apart may be missing. Identical values can stand only once. Where a SMILES comes first, the peptide text is derived from it. [ ]: non-standard residue; d: D form. Hyp = O=C(O)[C@@H]1C[C@@H](O)CN1

How the values were obtained:
IL-2 = test: Example 8 main study Luminex, LPS hPBMCs: IL-2; format: cell-based, human; settings: for IL-2 Concentration, individual wells / IL-2 MFI, individual wells / IL-2 MFI, Mean / IL-2 Concentration, Mean: 24 h; for IL-2 MFI, Mean: LPS alone Mean 80.5; for IL-2 Concentration, Mean: LPS alone Mean 3988.7
Experimental: (§1) Human PBMCs were pretreated with YY-101, YDE-011, YDE-043 or reference compound; Xiidra® at various concentration (ranging from […] to 500 nM) for 2 h before stimulation. An equal volume of 0.5% DMSO was used as a vehicle control. Then, the cells were treated with LPS at 5 ug/ml, which was selected based on the pilot study. The supernatants from treated cells were harvested at 24 h and placed in a 96 well for Luminex cytokine & chemokine profiling using a Luminex 200 multiplex assay (Luminex; R&D system, USA).
(§2) The main study arm with triplicate wells per group in a 24-well plate: • 1. Blank • 2. PBMC: 0.5% DMSO • 3. PBMC+LPS (5 ug/ml) • 4. PBMC+YY-101 500 nM • 5. PBMC+YY-101 50 nM • 6. PBMC+YY-101 5 nM • 7. PBMC+YY-101 0.5 nM • 8. PBMC+LPS (5 ug/ml)+Xiidra® 500 nM • 9. PBMC+LPS (5 ug/ml)+Xiidra® 50 nM • 10. PBMC+LPS (5 ug/ml)+Xiidra® 5 nM • 11. PBMC+LPS (5 ug/ml)+Xiidra® 0.5 nM • 12. PBMC+LPS (5 ug/ml)+Xiidra® 0.05 nM • 13. PBMC+LPS (5 ug/ml)+Xiidra® 0.005 nM • 14. PBMC+LPS (5 ug/ml)+YY-101 500 nM • 15. PBMC+LPS (5 ug/ml)+YY-101 50 nM • 16. PBMC+LPS (5 ug/ml)+YY-101 5 nM • 17. PBMC+LPS (5 ug/ml)+YY-101 0.5 nM • 18. PBMC+LPS (5 ug/ml)+YY-101 0.05 nM • 19. PBMC+LPS (5 ug/ml)+YY-101 0.005 nM • 20. PBMC+LPS (5 ug/ml)+YDE-011 500 nM • 21. PBMC+LPS (5 ug/ml)+YDE-011 50 nM • 22. PBMC+LPS (5 ug/ml)+YDE-011 5 nM • 23. PBMC+LPS (5 ug/ml)+YDE-011 0.5 nM • 24. PBMC+LPS (5 ug/ml)+YDE-011 0.05 nM • 25. PBMC+LPS (5 ug/ml)+YDE-011 0.005 nM • 26. PBMC+LPS (5 ug/ml)+YDE-043 500 nM • 27. PBMC+LPS (5 ug/ml)+YDE-043 50 nM • 28. PBMC+LPS (5 ug/ml)+YDE-043 5 nM • 29. PBMC+LPS (5 ug/ml)+YDE-043 0.5 nM • 30. PBMC+LPS (5 ug/ml)+YDE-043 0.05 nM • 31. PBMC+LPS (5 ug/ml)+YDE-043 0.005 nM
(§3) Multiplex assay was used to measure 30 cytokines and chemokines. The 1:200 diluted cell supernatant and serial dilution of the standard were dispensed into a 96 well plate at 50 ul/well. Then, the pre-mixed cocktail of antibody-coated magnetic beads was dispensed at 50 ul/well and incubated at room temperature for 2 h in a horizontal orbital microplate shaker at 800±500 rpm. The beads were washed using a magnetic device to prevent loss. The biotin-antibody was dispensed in 50 ul of each well and incubated at room temperature for 1 h in a shaker at 800±500 rpm. After washing, streptavidin-PE was added at 50 ul/well and incubated at room temperature for 30 min in a shaker under the same conditions. Finally, after washing, wash buffer (100 ul/well) was added to the plate and incubated in a shaker for 2 min. The Luminex™ 200 setting were set according to the manufacturer's protocol. The data was calculated with a standard five-parameter logistic nonlinear regression analysis of the data (xPonent software 4.2, USA). Results were presented as concentration (ng/ml or pg/ml).

IL-1 alpha/IL-1F1 = test: Example 8 main study Luminex, LPS hPBMCs: IL-1 alpha/IL-1F1; format: cell-based, human
Experimental: as §1, §2, §3

[1] = PBMC + LPS(5 ug/ml) + compound 0.005 nM
[2] = PBMC + LPS(5 ug/ml) + compound 0.05 nM
[3] = PBMC + LPS(5 ug/ml) + compound 0.5 nM
[4] = PBMC + LPS(5 ug/ml) + compound 5 nM
[5] = PBMC + LPS(5 ug/ml) + compound 50 nM
[6] = PBMC + LPS(5 ug/ml) + compound 500 nM
[7] = PBMC + LPS(5 ug/ml) + test article 0.005 nM, Mean
[8] = PBMC + LPS(5 ug/ml) + test article 0.005 nM, individual replicates
[9] = PBMC + LPS(5 ug/ml) + test article 0.05 nM, Mean
[10] = PBMC + LPS(5 ug/ml) + test article 0.05 nM, individual replicates
[11] = PBMC + LPS(5 ug/ml) + test article 0.5 nM, Mean
[12] = PBMC + LPS(5 ug/ml) + test article 0.5 nM, individual replicates
[13] = PBMC + LPS(5 ug/ml) + test article 5 nM, Mean
[14] = PBMC + LPS(5 ug/ml) + test article 5 nM, individual replicates
[15] = PBMC + LPS(5 ug/ml) + test article 50 nM, Mean
[16] = PBMC + LPS(5 ug/ml) + test article 50 nM, individual replicates
[17] = PBMC + LPS(5 ug/ml) + test article 500 nM, Mean
[18] = PBMC + LPS(5 ug/ml) + test article 500 nM, individual replicates

CC(C)C[C@H](NC(=O)[C@H](CCC(N)=O)NC(=O)CNC(=O)[C@@H]1C[C@@H](O)CN1)C(=O)NCC(=O)O [YDE-043] (H-[Hyp]GQLG-OH; N-terminus and C-terminus assumed)
IL-2 Concentration, individual wells (IL-2; [1]): 2239.1 pg/mL and 2317.3 pg/mL and 3058.1 pg/mL
IL-2 MFI, individual wells (IL-2; [1]): 58.0 and 59.0 and 68.5
IL-2 MFI, Mean (IL-2; [1]): 61.8
IL-2 Concentration, Mean (IL-2; [1]): 2538.2 pg/mL
IL-2 Concentration, individual wells (IL-2; [2]): 2004.2 pg/ml and 2239.1 pg/ml (2×)
IL-2 MFI, individual wells (IL-2; [2]): 55.0 and 58.0 (2×)
IL-2 MFI, Mean (IL-2; [2]): 57.0
IL-2 Concentration, Mean (IL-2; [2]): 2160.8 pg/mL
IL-2 Concentration, individual wells (IL-2; [3]): 2082.5 pg/mL and 2317.3 pg/mL and 2121.7 pg/mL
IL-2 MFI, individual wells (IL-2; [3]): 56.0 and 59.0 and 56.5
IL-2 MFI, Mean (IL-2; [3]): 57.2
IL-2 Concentration, Mean (IL-2; [3]): 2173.8 pg/mL
IL-2 Concentration, individual wells (IL-2; [4]): 2785.6 pg/mL and 2395.5 pg/mL and 2473.6 pg/mL
IL-2 MFI, individual wells (IL-2; [4]): 65.0 and 60.0 and 61.0
IL-2 MFI, Mean (IL-2; [4]): 62.0
IL-2 Concentration, Mean (IL-2; [4]): 2551.6 pg/mL
IL-2 Concentration, individual wells (IL-2; [5]): 2551.7 pg/mL and 2395.5 pg/mL and 2239.1 pg/mL
IL-2 MFI, individual wells (IL-2; [5]): 62.0 and 60.0 and 58.0
IL-2 MFI, Mean (IL-2; [5]): 60.0
IL-2 Concentration, Mean (IL-2; [5]): 2395.4 pg/mL
IL-2 Concentration, individual wells (IL-2; [6]): 2004.2 pg/mL and 2082.5 pg/mL and 2239.1 pg/mL
IL-2 MFI, individual wells (IL-2; [6]): 55.0 and 56.0 and 58.0
IL-2 MFI, Mean (IL-2; [6]): 56.3
IL-2 Concentration, Mean (IL-2; [6]): 2108.6 pg/mL
LPS-induced IL-2 (in words) (IL-2; at as low as 5 μM, LPS 5 ug/mL 24 hrs): significantly reduced
LPS-induced IL-1a levels (in words) (IL-1 alpha/IL-1F1; LPS 5 ug/mL 24 hrs): significantly lowered
IL-1 alpha/IL-1F1 Concentration (IL-1 alpha/IL-1F1; [7]): 489.6 pg/mL
IL-1 alpha/IL-1F1 MFI (IL-1 alpha/IL-1F1; [7]): 30.5
IL-1 alpha/IL-1F1 Concentration (IL-1 alpha/IL-1F1; [8]): 383.2 pg/mL and 490.5 pg/mL and 595.1 pg/mL
IL-1 alpha/IL-1F1 MFI (IL-1 alpha/IL-1F1; [8]): 27.0 and 30.5 and 34.0
IL-1 alpha/IL-1F1 Concentration (IL-1 alpha/IL-1F1; [9]): 330.9 pg/mL
IL-1 alpha/IL-1F1 MFI (IL-1 alpha/IL-1F1; [9]): 25.3
IL-1 alpha/IL-1F1 Concentration (IL-1 alpha/IL-1F1; [10]): 351.9 pg/ml and 320.3 pg/ml (2×)
IL-1 alpha/IL-1F1 MFI (IL-1 alpha/IL-1F1; [10]): 26.0 and 25.0 (2×)
IL-1 alpha/IL-1F1 Concentration (IL-1 alpha/IL-1F1; [11]): 351.9 pg/mL
IL-1 alpha/IL-1F1 MFI (IL-1 alpha/IL-1F1; [11]): 26.0
IL-1 alpha/IL-1F1 Concentration (IL-1 alpha/IL-1F1; [12]): 351.9 pg/mL and 367.6 pg/mL and 336.2 pg/mL
IL-1 alpha/IL-1F1 MFI (IL-1 alpha/IL-1F1; [12]): 26.0 and 26.5 and 25.5
IL-1 alpha/IL-1F1 Concentration (IL-1 alpha/IL-1F1; [13]): 465.1 pg/mL
IL-1 alpha/IL-1F1 MFI (IL-1 alpha/IL-1F1; [13]): 29.7
IL-1 alpha/IL-1F1 Concentration (IL-1 alpha/IL-1F1; [14]): 505.6 pg/ml and 444.9 pg/ml (2×)
IL-1 alpha/IL-1F1 MFI (IL-1 alpha/IL-1F1; [14]): 31.0 and 29.0 (2×)
IL-1 alpha/IL-1F1 Concentration (IL-1 alpha/IL-1F1; [15]): 434.5 pg/mL
IL-1 alpha/IL-1F1 MFI (IL-1 alpha/IL-1F1; [15]): 28.7
IL-1 alpha/IL-1F1 Concentration (IL-1 alpha/IL-1F1; [16]): 475.3 pg/mL and 444.9 pg/mL and 383.2 pg/mL
IL-1 alpha/IL-1F1 MFI (IL-1 alpha/IL-1F1; [16]): 30.0 and 29.0 and 27.0
IL-1 alpha/IL-1F1 Concentration (IL-1 alpha/IL-1F1; [17]): 424.2 pg/mL
IL-1 alpha/IL-1F1 MFI (IL-1 alpha/IL-1F1; [17]): 28.3
IL-1 alpha/IL-1F1 Concentration (IL-1 alpha/IL-1F1; [18]): 475.3 pg/mL and 414.2 pg/mL and 383.2 pg/mL
IL-1 alpha/IL-1F1 MFI (IL-1 alpha/IL-1F1; [18]): 30.0 and 28.0 and 27.0
